Assay results taken from PMC5554537 (Frontiers in Pharmacology, 2017).
Where two headings read alike, the source gives them in different places.

Columns and labels:
HCT116 cells = test: Antiproliferative potency, 4 h exposure, sulforhodamine B; format: cell-based, human; conditions: Homo sapiens, HCT-116, 4 h, HCT116, 4 h exposure, read-out: IC50
Description: Antiproliferative potency of SN30000 and its major metabolites following 4 h exposure of HCT116 cells under aerobic or anoxic conditions. […]
a HCT116 cells, originally from ATCC, were authenticated by short tandem repeat profiling and confir med mycoplasma-free by PCR/ELISA assay . Cells were passaged in Alpha MEM with 5% foetal bovine serum without antibiotics. In vitro cytotoxicity of SN30000 and metabolites was measured as the inhibition of cell proliferation as described previously (Gu et al., 2009). Briefly, cells were exposed to compounds for 4 h under aerobic (20% O2) or anoxic (Bactron anaerobic chamber) conditions and then grown in an aerobic 5% CO 2 incubator for 5 d before staining with sulforhodamine B. IC50 values were deter mined by interpolation (nonlinear regression to the standard Hill equation) as the drug concentration reducing staining to 50% of controls on the same plate. b Values are mean ± SEM for the numb er of independent experiments shown in parentheses.

[1] = Plasma protein binding by equilibrium dialysis; format: in vitro ADME; conditions: NIH-III mouse plasma, 100 µM, 37°C, 6 h
Description: TABLE 11: Protein binding of SN30000, M14 and M18 at the indicated concentrations in NIH-III mouse plasma, measured by equilibrium dialysisa.
(µM) Percent Protein Bound (Mean ± SD)b […]
a Protein binding was evaluated by equilibrium dialysis using a high throughput plate with 12-14KDa dialysis membrane (HTDialysis, Gales Ferry, CT) as described by Banker et al., 2003, with modification. Briefly, 100 µL samples of plasma containing SN30000 or metabolites (M14 and M18) were dialysed against 100 µL PBS (pH 7.4) in an incubator (Innova-42, New Brunswick Scientific, US ) at 37°C with shaking at 80 rpm for 6 h. To achieve matrix match, 10 µL of blank plasma was added to 90 µL of the PBS sample and 90 µL of PBS was added to 10 µL of the plasma sample. Proteins were precipitated with 3 vol of ice-cold MeCN, the centrifuged supernatants were mixed with 2 vol 45 mM ammonium formate buffer pH 4.5, and 50 µL samples were analysed by HPLC with absorbance […]
bValues are mean and SD for triplicate samples.

[2] = i.p. SN30000 186 mg/kg
Description: (§1) M18 was quantified by absorbance detection with reference to an external standard calibration curve.
(§2) Concentration-time data were analyzed by non-compartmental analysis using Phoenix WinNonlin (ver 6.4, Build 6.4.0768 Pharsight, United States); all AUC values were extrapolated to infinity using the linear trapezoidal rule.
(§3) SN30000, M14 and M13 were quantified by LC-MS/MS using stable isotope internal standards, while M18 was quantified by absorbance detection using external standard calibration curves.

in vivo = conditions: NIH-III, mouse, in vivo, ip, 186 mg/kg
Description: as §1, §2, §3

[3] = Stability in mouse plasma (QC samples); format: physicochemical
Excerpt: using octa-deuterated internal standards of SN30000, M13 and M14 synthesised as previously reported (Wang et al., 2012). Intra- and inter-day precision (expressed as relative standard deviation (RSD) and accuracy (expressed as percentage of the nominal value) were deter mined by analy sis of replicates (n=6) of low and high quality control (QC) samples on three different days. The lower limit of quantitation (LLOQ) was defined as the lowest concentration providing RSD and accuracy < 20%. Recovery from plasma and liver ho mogenates was tested at the three QC levels. The recoveries were evaluated by comparing extracted samples with blank extracted solutions spiked with analytes of the same amount.
Matrix effects, defined as the change in response due to the presence of other substances in the samples, were evaluated by comparing the analytes diluted into the blank plasma or liver extracted solution with that of the same stock solutions diluted in water. Three different concentration levels (low, medium and high QC) were evaluated by analysing three samples at each level. Accuracy , precision, recovery and matrix effects were all acceptable over the concentration ranges evaluated for plas ma (Supplementary Table 1) and for liver homogenates (Supplementary Table 2).
Stability of the analytes in mouse plasma (Supplementary Table 3) or liver homogenate (Supplementary Table 4) was confirmed during holding of QC samples on ice for up to 2 h under nor mal laboratory lighting, although there was a trend towards loss of SN30000 in plasma samples held in clear microcentrifuge tubes which may reflect the known photosensitivity of the compound (Gu et al., 2014). This loss was reduced by use of red microcentrifuge tubes, and eliminated by black tubes. Stability in both matrices was also confir med for one month storage at -80°C and for three freeze-thaw cycles, while MeOH-deproteinised samples w ere stable for 12 h at 4°C in the autosampler (Supplementary Tables

[4] = HT29 tumour, tumour-bearing mice
[5] = liver, HT29 tumour-bearing mice
[6] = plasma deproteinised in 3 vol MeOH, 12 h autosampler at 4°C, nominal SN30000 0.5, M14 0.25, M13 0.1 µM
[7] = plasma deproteinised in 3 vol MeOH, 12 h autosampler at 4°C, nominal SN30000 5, M14 2.5, M13 1 µM
[8] = plasma deproteinised in 3 vol MeOH, 12 h autosampler at 4°C, nominal SN30000 50, M14 25, M13 10 µM
[9] = plasma, 1 month at -80°C, nominal SN30000 0.5, M14 0.25, M13 0.1 µM
[10] = plasma, 1 month at -80°C, nominal SN30000 5, M14 2.5, M13 1 µM
[11] = plasma, 1 month at -80°C, nominal SN30000 50, M14 25, M13 10 µM
[12] = plasma, 1 h on ice, black vial, nominal SN30000 0.5, M14 0.25, M13 0.1 µM
[13] = plasma, 1 h on ice, black vial, nominal SN30000 5, M14 2.5, M13 1 µM
[14] = plasma, 1 h on ice, black vial, nominal SN30000 50, M14 25, M13 10 µM
[15] = plasma, 1 h on ice, clear vial, nominal SN30000 0.5, M14 0.25, M13 0.1 µM
[16] = plasma, 1 h on ice, clear vial, nominal SN30000 5, M14 2.5, M13 1 µM
[17] = plasma, 1 h on ice, clear vial, nominal SN30000 50, M14 25, M13 10 µM
[18] = plasma, 1 h on ice, red vial, nominal SN30000 0.5, M14 0.25, M13 0.1 µM
[19] = plasma, 1 h on ice, red vial, nominal SN30000 5, M14 2.5, M13 1 µM
[20] = plasma, 1 h on ice, red vial, nominal SN30000 50, M14 25, M13 10 µM
[21] = plasma, 2 h on ice, black vial, nominal SN30000 0.5, M14 0.25, M13 0.1 µM
[22] = plasma, 2 h on ice, black vial, nominal SN30000 5, M14 2.5, M13 1 µM
[23] = plasma, 2 h on ice, black vial, nominal SN30000 50, M14 25, M13 10 µM
[24] = plasma, 2 h on ice, clear vial, nominal SN30000 0.5, M14 0.25, M13 0.1 µM
[25] = plasma, 2 h on ice, clear vial, nominal SN30000 5, M14 2.5, M13 1 µM
[26] = plasma, 2 h on ice, clear vial, nominal SN30000 50, M14 25, M13 10 µM
[27] = plasma, 2 h on ice, red vial, nominal SN30000 0.5, M14 0.25, M13 0.1 µM
[28] = plasma, 2 h on ice, red vial, nominal SN30000 5, M14 2.5, M13 1 µM
[29] = plasma, 2 h on ice, red vial, nominal SN30000 50, M14 25, M13 10 µM
[30] = plasma, three freeze-thaw cycles, nominal SN30000 0.5, M14 0.25, M13 0.1 µM
[31] = plasma, three freeze-thaw cycles, nominal SN30000 5, M14 2.5, M13 1 µM
[32] = plasma, three freeze-thaw cycles, nominal SN30000 50, M14 25, M13 10 µM

[O-][n+]1nc(CCCN2CCOCC2)nc2cc3c(cc21)CCC3 [M14]
IC50 (HCT116 cells; aerobic (20% O2)): 600 ± 60 µM
IC50 (HCT116 cells; anoxic): 900 ± 100 µM
Percent Protein Bound (Mean ± SD) [1]: 65.81 ± 0.02%
Concentrations in brain compared with plasma [2]: higher in brain than plasma
AUC (extrapolated to infinity) [2, 4]: 136 µmol·h/kg
Cmax [2, 4]: 46.0 ± 3.9 µmol/kg
AUC (extrapolated to infinity) ([2]; brain, non-tumour-bearing mice): 126 µmol·h/kg
Cmax ([2]; brain, non-tumour-bearing mice): 162 ± 0 µmol/kg
AUC (extrapolated to infinity) [2, 5]: 305 µmol·h/kg
Cmax [2, 5]: 371 ± 26 µmol/kg
AUC (extrapolated to infinity) ([2]; liver, non-tumour-bearing mice): 350 µmol·h/kg
Cmax ([2]; liver, non-tumour-bearing mice): 469 ± 27 µmol/kg
AUC (extrapolated to infinity) ([2]; plasma, HT29 tumour-bearing mice): 27. 6 µmol. hr/kg
AUC (extrapolated to infinity) ([2]; plasma, non-tumour-bearing mice): 26.4 µmol·h/kg
Tmax (in vivo): ≤ 5 min
Cmax (in vivo; Cmax, i.p. SN30000 186 mg/kg, plasma, non-tumour-bearing mice): 36.1 ± 5.5 µM
half-life (in vivo; Elimination half-life, i.p. SN30000 186 mg/kg, all tissues except tumors): ~30 min
half-life (in vivo; Terminal T1/2, i.p. SN30000 186 mg/kg, HT29 tumour, tumour-bearing mice): 94.8 min
half-life (in vivo; Terminal T1/2, i.p. SN30000 186 mg/kg, brain, non-tumour-bearing mice): 32.1 min
half-life (in vivo; Terminal T1/2, i.p. SN30000 186 mg/kg, liver, HT29 tumour-bearing mice): 42.7 min
half-life (in vivo; Terminal T1/2, i.p. SN30000 186 mg/kg, liver, non-tumour-bearing mice): 40.5 min
half-life (in vivo; Terminal T1/2, i.p. SN30000 186 mg/kg, plasma, HT29 tumour-bearing mice): 40.6 min
half-life (in vivo; Terminal T1/2, i.p. SN30000 186 mg/kg, plasma, non-tumour-bearing mice): 37.8 min
Bias [3, 6]: -3.45%
Measured conc [3, 6]: 0.24 µM
Bias [3, 7]: -1.00%
Measured conc [3, 7]: 2.48 µM
Bias [3, 8]: 5.16%
Measured conc [3, 8]: 26.29 µM
Bias [3, 9]: 1.83%
Measured conc [3, 9]: 0.23 µM
Bias [3, 10]: 1.63%
Measured conc [3, 10]: 2.42 µM
Bias [3, 11]: 1.59%
Measured conc [3, 11]: 26.65 µM
Bias [3, 12]: -6.07%
Measured conc [3, 12]: 0.23 µM
Bias [3, 13]: -9.84%
Measured conc [3, 13]: 2.25 µM
Bias [3, 14]: 3.20%
Measured conc [3, 14]: 25.80 µM
Bias [3, 15]: -6.07%
Measured conc [3, 15]: 0.23 µM
Bias [3, 16]: -2.06%
Measured conc [3, 16]: 2.45 µM
Bias [3, 17]: -2.50%
Measured conc [3, 17]: 24.37 µM
Bias [3, 18]: -3.25%
Measured conc [3, 18]: 0.24 µM
Bias [3, 19]: -4.29%
Measured conc [3, 19]: 2.39 µM
Bias [3, 20]: 0.26%
Measured conc [3, 20]: 25.07 µM
Bias [3, 21]: -2.23%
Measured conc [3, 21]: 0.24 µM
Bias [3, 22]: -2.62%
Measured conc [3, 22]: 2.43 µM
Bias [3, 23]: -2.33%
Measured conc [3, 23]: 24.42 µM
Bias [3, 24]: -5.90%
Measured conc [3, 24]: 0.24 µM
Bias [3, 25]: 0.51%
Measured conc [3, 25]: 2.51 µM
Bias [3, 26]: -2.43%
Measured conc [3, 26]: 24.39 µM
Bias [3, 27]: -3.27%
Measured conc [3, 27]: 0.24 µM
Bias [3, 28]: -0.72%
Measured conc [3, 28]: 2.48 µM
Bias [3, 29]: 0.70%
Measured conc [3, 29]: 25.17 µM
Bias [3, 30]: -4.07%
Measured conc [3, 30]: 0.24 µM
Bias [3, 31]: -3.19%
Measured conc [3, 31]: 2.42 µM
Bias [3, 32]: 3.92%
Measured conc [3, 32]: 25.98 µM
